Patent publication US20230085307A1, “PYRIDAZINONE COMPOUND AND HERBICIDE” (NISSAN CHEMICAL CORPORATION, priority 2019, published 2023)

Tests used:
[1] = tested on: Japanese bulrush; experiment: Test Example 1: herbicidal activity, application before weed generation under submerged conditions (Table 16, symbol B); assay type: in vivo, Japanese bulrush (Schoenoplectus juncoides)
Outline: (§1)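 Submerged Wagner pots (alluvial soil, 4 cm water) sown with weed seeds and planted with 2.5-leaf rice seedlings; emulsifiable concentrate diluted in water applied to water surface on sowing day. Held in greenhouse at 25-30 °C; injury scored 0-5 by herbicidal rate after three weeks.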

[2] = tested on: rice flat sedge; experiment: Test Example 3: herbicidal effect by foliage application, Wagner pot (Table 18, symbol E); assay type: in vivo, rice flat sedge (Cyperus iria)
Outline: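 Plants were sown in alluvial soil held under 0.1–0.5 cm standing water and grown 14 days in a greenhouse at 25–30 °C. An emulsifiable formulation, water-diluted to the set dose, was then sprayed onto the foliage, and effects were scored three weeks later using previously defined criteria.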

[3] = tested on: persian speedwell; experiment: Test Example 4: herbicidal effect by soil treatment (Table 19, symbol R); assay type: in vivo, Persian speedwell (Veronica persica)
Outline: (§2)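 Emulsion of test compound, water-diluted to predetermined amount, sprayed on soil after sowing (seed depth ~1.5 cm, sterilized diluvial soil). Greenhouse, 25–30° C. Effect graded at three weeks post-spray.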

[4] = tested on: windgrass; experiment: Test Example 4: herbicidal effect by soil treatment (Table 19, symbol L); assay type: in vivo, windgrass (Apera spica-venti)
Outline: as §2

[5] = tested on: oval-leafed pondweed; experiment: Test Example 2: herbicidal activity, application during weed generation under submerged conditions (Table 17, symbol C); assay type: in vivo, oval-leafed pondweed (Monochoria vaginalis); conditions: application during weed generation, submerged conditions
Outline: (§3)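 Herbicide emulsion, diluted with water to the chosen amount, is applied onto 4 cm floodwater over alluvial soil where the weeds were co-sown and raised at 25–30° C. Application timing: 1–2 leaves. Assessment: three weeks afterwards.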

[6] = tested on: chickweed; experiment: Test Example 5: herbicidal effect by foliage application, plastic box (Table 20, symbol P); assay type: in vivo, common chickweed (Stellaria media); conditions: foliage application, three weeks after application
Outline: (§4)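 Post-emergence foliar test in sterilized diluvial soil. Compound applied as water-diluted emulsion at a predetermined rate to 14-day-old plants; evaluation at three weeks.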

[7] = tested on: windgrass; experiment: Test Example 5: herbicidal effect by foliage application, plastic box (Table 20, symbol L); assay type: in vivo, windgrass (Apera spica-venti); conditions: foliage application, three weeks after application
Outline: as §4

[8] = tested on: Japanese bulrush; experiment: Test Example 2: herbicidal activity, application during weed generation under submerged conditions (Table 17, symbol B); assay type: in vivo, Japanese bulrush (Schoenoplectus juncoides); conditions: application during weed generation, submerged conditions
Outline: as §3

[9] = tested on: oval-leafed pondweed; experiment: Test Example 1: herbicidal activity, application before weed generation under submerged conditions (Table 16, symbol C); assay type: in vivo, oval-leafed pondweed (Monochoria vaginalis)
Outline: as §1

[10] = tested on: Italian ryegrass; experiment: Test Example 4: herbicidal effect by soil treatment (Table 19, symbol K); assay type: in vivo, Italian ryegrass (Lolium multiflorum)
Outline: as §2

[11] = tested on: green foxtail; experiment: Test Example 5: herbicidal effect by foliage application, plastic box (Table 20, symbol G); assay type: in vivo, green foxtail (Setaria viridis); conditions: foliage application, three weeks after application
Outline: as §4

[12] = tested on: velvetleaf; experiment: Test Example 4: herbicidal effect by soil treatment (Table 19, symbol M); assay type: in vivo, velvetleaf (Abutilon theophrasti)
Outline: as §2

[13] = tested on: southern crabgrass; experiment: Test Example 5: herbicidal effect by foliage application, plastic box (Table 20, symbol F); assay type: in vivo, southern crabgrass (Digitaria ciliaris); conditions: foliage application, three weeks after application
Outline: as §4

[14] = tested on: lambsquarters; experiment: Test Example 5: herbicidal effect by foliage application, plastic box (Table 20, symbol O); assay type: in vivo, lambsquarters (Chenopodium album); conditions: foliage application, three weeks after application
Outline: as §4

[15] = tested on: green foxtail; experiment: Test Example 4: herbicidal effect by soil treatment (Table 19, symbol G); assay type: in vivo, green foxtail (Setaria viridis)
Outline: as §2

[16] = tested on: wild oat; experiment: Test Example 4: herbicidal effect by soil treatment (Table 19, symbol I); assay type: in vivo, wild oat (Avena fatua)
Outline: as §2

| Structure (SMILES) | Herbicidal effect on B: Japanese bulrush (grade 0-5) ([1]; 320 g/ha applied herbicide) | herbicidal effect on E (rice flat sedge), rating 0-5 ([2]; 320 g/ha) | R: persian speedwell, herbicidal effect rating ([3]; AAH 320 g/ha) | L: windgrass, herbicidal effect rating ([4]; AAH 320 g/ha) | herbicidal effect rating, C: oval-leafed pondweed ([5]; AAH 320 g/ha) | P: chickweed, herbicidal effect ([6]; AAH 320 g/ha) | L: windgrass, herbicidal effect ([7]; AAH 320 g/ha) | herbicidal effect rating, B: Japanese bulrush ([8]; AAH 320 g/ha) | Herbicidal effect on C: oval-leafed pondweed (grade 0-5) ([9]; 320 g/ha applied herbicide) | K: Italian ryegrass, herbicidal effect rating ([10]; AAH 320 g/ha) | G: green foxtail, herbicidal effect ([11]; AAH 320 g/ha) | M: velvetleaf, herbicidal effect rating ([12]; AAH 320 g/ha) | F: southern crabgrass, herbicidal effect ([13]; AAH 320 g/ha) | O: lambsquarters, herbicidal effect ([14]; AAH 320 g/ha) | G: green foxtail, herbicidal effect rating ([15]; AAH 320 g/ha) | I: wild oat, herbicidal effect rating ([16]; AAH 320 g/ha) | further results |
| --- | --- | --- | --- | --- | --- | --- | --- | --- | --- | --- | --- | --- | --- | --- | --- | --- | --- |
| Cc1nn(C)c(=O)c(-c2c(-c3ccc(OCc4ccccc4)cc3)sc3ccccc23)c1O [1-133] | 5 (Herbicidal rate of 90% or more (almost completely withered)) | 5 (Herbicidal rate of 90% or more (almost completely withered)) | 5 (Herbicidal rate of 90% or more (almost completely withered)) | 0 (Herbicidal rate of 5% or less (almost no effect)) | 3 (Herbicidal rate of 40% or more and less than 70%) | 5 (Herbicidal rate of 90% or more (almost completely withered)) | 0 (Herbicidal rate of 5% or less (almost no effect)) | 3 (Herbicidal rate of 40% or more and less than 70%) | 3 (Herbicidal rate of 40% or more and less than 70%) | 0 (Herbicidal rate of 5% or less (almost no effect)) | 5 (Herbicidal rate of 90% or more (almost completely withered)) | 0 (Herbicidal rate of 5% or less (almost no effect)) | 3 (Herbicidal rate of 40% or more and less than 70%) | 5 (Herbicidal rate of 90% or more (almost completely withered)) | 3 (Herbicidal rate of 40% or more and less than 70%) | 0 (Herbicidal rate of 5% or less (almost no effect)) |  |
| Cc1nn(C)c(=O)c(-c2c(-c3ccc(OCC4CC4(F)F)cc3)sc3ccccc23)c1O (centres unmarked) [1-138] | 3 (Herbicidal rate of 40% or more and less than 70%) | 5 (Herbicidal rate of 90% or more (almost completely withered)) | 5 (Herbicidal rate of 90% or more (almost completely withered)) | 0 (Herbicidal rate of 5% or less (almost no effect)) | 0 (Herbicidal rate of 5% or less (almost no effect)) | 5 (Herbicidal rate of 90% or more (almost completely withered)) | 5 (Herbicidal rate of 90% or more (almost completely withered)) | 3 (Herbicidal rate of 40% or more and less than 70%) | 3 (Herbicidal rate of 40% or more and less than 70%) | 5 (Herbicidal rate of 90% or more (almost completely withered)) | 3 (Herbicidal rate of 40% or more and less than 70%) | 3 (Herbicidal rate of 40% or more and less than 70%) | 0 (Herbicidal rate of 5% or less (almost no effect)) | 4 (Herbicidal rate of 70% or more and less than 90%) | 4 (Herbicidal rate of 70% or more and less than 90%) | 0 (Herbicidal rate of 5% or less (almost no effect)) |  |
| CSCCOc1ccc(-c2sc3ccccc3c2-c2c(O)c(C)nn(C)c2=O)cc1 [1-141] | 0 (Herbicidal rate of 5% or less (almost no effect)) | 5 (Herbicidal rate of 90% or more (almost completely withered)) | 5 (Herbicidal rate of 90% or more (almost completely withered)) | 3 (Herbicidal rate of 40% or more and less than 70%) | 0 (Herbicidal rate of 5% or less (almost no effect)) | 5 (Herbicidal rate of 90% or more (almost completely withered)) | 5 (Herbicidal rate of 90% or more (almost completely withered)) | 3 (Herbicidal rate of 40% or more and less than 70%) | 0 (Herbicidal rate of 5% or less (almost no effect)) | 5 (Herbicidal rate of 90% or more (almost completely withered)) | 5 (Herbicidal rate of 90% or more (almost completely withered)) | 4 (Herbicidal rate of 70% or more and less than 90%) | 5 (Herbicidal rate of 90% or more (almost completely withered)) | 5 (Herbicidal rate of 90% or more (almost completely withered)) | 5 (Herbicidal rate of 90% or more (almost completely withered)) | 0 (Herbicidal rate of 5% or less (almost no effect)) |  |
| Cc1nn(C)c(=O)c(-c2c(-c3ccc(OCC4CC4)cc3)sc3ccccc23)c1O [1-142] | 5 (Herbicidal rate of 90% or more (almost completely withered)) | 5 (Herbicidal rate of 90% or more (almost completely withered)) | 5 (Herbicidal rate of 90% or more (almost completely withered)) | 0 (Herbicidal rate of 5% or less (almost no effect)) | 0 (Herbicidal rate of 5% or less (almost no effect)) | 5 (Herbicidal rate of 90% or more (almost completely withered)) | 1 (Herbicidal rate of 5% or more and less than 20%) | 2 (Herbicidal rate of 20% or more and less than 40%) | 5 (Herbicidal rate of 90% or more (almost completely withered)) | 0 (Herbicidal rate of 5% or less (almost no effect)) | 2 (Herbicidal rate of 20% or more and less than 40%) | 3 (Herbicidal rate of 40% or more and less than 70%) | 1 (Herbicidal rate of 5% or more and less than 20%) | 3 (Herbicidal rate of 40% or more and less than 70%) | 0 (Herbicidal rate of 5% or less (almost no effect)) | 0 (Herbicidal rate of 5% or less (almost no effect)) |  |
| COCCOc1ccc(-c2sc3ccccc3c2-c2c(O)c(C)nn(C)c2=O)cc1 [1-148] |  |  |  |  |  |  |  |  |  |  |  |  |  |  |  |  | Herbicidal effect on B: Japanese bulrush (grade 0-5) ([1]; 368 g/ha applied herbicide): 3 (Herbicidal rate of 40% or more and less than 70%); herbicidal effect on E (rice flat sedge), rating 0-5 ([2]; 368 g/ha): 5 (Herbicidal rate of 90% or more (almost completely withered)); R: persian speedwell, herbicidal effect rating ([3]; AAH 368 g/ha): 5 (Herbicidal rate of 90% or more (almost completely withered)); L: windgrass, herbicidal effect rating ([4]; AAH 368 g/ha): 0 (Herbicidal rate of 5% or less (almost no effect)); herbicidal effect rating, C: oval-leafed pondweed ([5]; AAH 368 g/ha): 1 (Herbicidal rate of 5% or more and less than 20%); P: chickweed, herbicidal effect ([6]; AAH 368 g/ha): 5 (Herbicidal rate of 90% or more (almost completely withered)); L: windgrass, herbicidal effect ([7]; AAH 368 g/ha): 4 (Herbicidal rate of 70% or more and less than 90%); herbicidal effect rating, B: Japanese bulrush ([8]; AAH 368 g/ha): 3 (Herbicidal rate of 40% or more and less than 70%); Herbicidal effect on C: oval-leafed pondweed (grade 0-5) ([9]; 368 g/ha applied herbicide): 3 (Herbicidal rate of 40% or more and less than 70%); K: Italian ryegrass, herbicidal effect rating ([10]; AAH 368 g/ha): 5 (Herbicidal rate of 90% or more (almost completely withered)); G: green foxtail, herbicidal effect ([11]; AAH 368 g/ha): 5 (Herbicidal rate of 90% or more (almost completely withered)); M: velvetleaf, herbicidal effect rating ([12]; AAH 368 g/ha): 4 (Herbicidal rate of 70% or more and less than 90%); F: southern crabgrass, herbicidal effect ([13]; AAH 368 g/ha): 5 (Herbicidal rate of 90% or more (almost completely withered)); O: lambsquarters, herbicidal effect ([14]; AAH 368 g/ha): 5 (Herbicidal rate of 90% or more (almost completely withered)); G: green foxtail, herbicidal effect rating ([15]; AAH 368 g/ha): 5 (Herbicidal rate of 90% or more (almost completely withered)); I: wild oat, herbicidal effect rating ([16]; AAH 368 g/ha): 2 (Herbicidal rate of 20% or more and less than 40%) |
